Data taken from patent publication US8901118B2, “Compounds and methods for kinase modulation, and indications therefor” (Plexxikon Inc., priority 2010, dated 2014).

Experiments:
TrkA kinase = TrkA kinase (Homo sapiens, UniProt P04629); test: TrkA kinase biochemical activity assay (AlphaScreen); settings: 100 μM ATP; read-out: Biochemical Inhibition IC50 TrkA
In short: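 Recombinant TrkA with 30 nM biotin-(E4Y)10 and 100 μM ATP in 25 mM Hepes pH 7.5, 10 mM MnCl2, 5% DMSO, 40 min at room temperature. Phosphorylation read by AlphaScreen (streptavidin donor, PY20 acceptor beads); IC50 from signal vs compound concentration. TrkC run similarly.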

[1] = Relative solubility by turbidity in aqueous buffers (pH 1.5, 4.5, 6.8, 7.4); format: physicochemical; settings: for turbidity threshold (L, M, H) 1.4: pH 1.5 (SGF); for turbidity threshold (L, M, H) 4.5: pH 4.5 (SIF); for turbidity threshold (L, M, H) 6.8: pH 6.8 (SIF); for turbidity threshold (L, M, H) 7.4: pH 7.4 (HEPES)
In short: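 Twofold DMSO dilutions of a 25 mM stock were spiked into SGF (0.5M NaCl, pH 1.5), SIF (0.05M NaH2PO4, pH 4.5 and 6.8) or HEPES buffer (10 mM HEPES, 150 mM NaCl, pH 7.4). Absorbance was read at 490, 535 and 650 nm. The endpoint is the concentration crossing O.D. 0.01, averaged across wavelengths.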

Sequence of TrkA kinase (P04629 33-796): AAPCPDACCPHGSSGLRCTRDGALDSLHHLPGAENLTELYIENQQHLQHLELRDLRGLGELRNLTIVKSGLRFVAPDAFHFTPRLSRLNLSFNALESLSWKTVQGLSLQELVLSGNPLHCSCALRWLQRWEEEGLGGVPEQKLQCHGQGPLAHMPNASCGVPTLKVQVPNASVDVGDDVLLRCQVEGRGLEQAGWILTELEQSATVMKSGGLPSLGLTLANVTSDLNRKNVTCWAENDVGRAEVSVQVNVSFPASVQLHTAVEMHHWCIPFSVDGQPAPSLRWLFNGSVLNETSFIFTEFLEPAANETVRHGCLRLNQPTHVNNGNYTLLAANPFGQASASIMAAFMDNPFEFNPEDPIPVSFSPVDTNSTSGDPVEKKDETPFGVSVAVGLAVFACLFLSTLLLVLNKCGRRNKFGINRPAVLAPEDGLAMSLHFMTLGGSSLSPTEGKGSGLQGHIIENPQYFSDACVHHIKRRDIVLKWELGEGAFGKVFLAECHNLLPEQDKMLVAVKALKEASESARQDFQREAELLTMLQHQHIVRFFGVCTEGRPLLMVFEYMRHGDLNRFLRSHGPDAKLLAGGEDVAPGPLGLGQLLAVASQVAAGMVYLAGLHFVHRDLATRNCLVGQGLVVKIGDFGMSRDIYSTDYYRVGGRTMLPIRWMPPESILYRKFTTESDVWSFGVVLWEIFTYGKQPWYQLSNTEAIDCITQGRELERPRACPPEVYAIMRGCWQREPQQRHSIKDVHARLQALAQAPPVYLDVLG

Row | Structure (SMILES) | IC50 (TrkA kinase) | turbidity threshold (L, M, H) 1.4 [1] | turbidity threshold (L, M, H) 4.5 [1] | turbidity threshold (L, M, H) 6.8 [1] | turbidity threshold (L, M, H) 7.4 [1]
1 | COc1ccc(Nc2ccc(C(=O)c3c[nH]c4ncnc(NCC(F)(F)F)c34)c(F)n2)cn1 [Compound P-4084, [2-fluoro-6-[(6-methoxy-3-pyridyl)amino]-3-pyridyl]-[4-(2,2,2-trifluoroethylamino)-7H-pyrrolo[2,3-d]pyrimidin-5-yl]methanone] | < 10 nM | M (moderate solubility if the threshold concentration is 31.3 μM to 250 μM) | M (moderate solubility if the threshold concentration is 31.3 μM to 250 μM) | M (moderate solubility if the threshold concentration is 31.3 μM to 250 μM) | H (high solubility if the threshold concentration is >250 μm)
2 | CNc1ncnc2[nH]cc(C(=O)c3ccc(Nc4ccc(OC)nc4)nc3F)c12 [Compound P-4083, [2-fluoro-6-[(6-methoxy-3-pyridyl)amino]-3-pyridyl]-[4-(methylamino)-7H-pyrrolo[2,3-d]pyrimidin-5-yl]methanone] | < 10 nM | M (moderate solubility if the threshold concentration is 31.3 μM to 250 μM) | M (moderate solubility if the threshold concentration is 31.3 μM to 250 μM) | M (moderate solubility if the threshold concentration is 31.3 μM to 250 μM) | H (high solubility if the threshold concentration is >250 μm)
3 | O=C(c1ccc(Nc2ccc(C(F)(F)F)nc2)nc1F)c1c[nH]c2ncnc(NC3CC3)c12 [Compound P-4091, [4-(cyclopropylamino)-7H-pyrrolo[2,3-d]pyrimidin-5-yl]-[2-fluoro-6-[[6-(trifluoromethyl)-3-pyridyl]amino]-3-pyridyl]methanone] | < 10 nM | H (high solubility if the threshold concentration is >250 μm) | M (moderate solubility if the threshold concentration is 31.3 μM to 250 μM) | M (moderate solubility if the threshold concentration is 31.3 μM to 250 μM) | M (moderate solubility if the threshold concentration is 31.3 μM to 250 μM)
4 | O=C(c1ccc(NC2CCC(F)(F)CC2)nc1Cl)c1c[nH]c2ncnc(NCC(F)(F)F)c12 [Compound P-4057, [2-chloro-6-[(4,4-difluorocyclohexyl)amino]-3-pyridyl]-[4-(2,2,2-trifluoroethylamino)-7H-pyrrolo[2,3-d]pyrimidin-5-yl]methanone] | < 1000 nM | L (low solubility if the threshold concentration is <31.3 μM) | L (low solubility if the threshold concentration is <31.3 μM) | L (low solubility if the threshold concentration is <31.3 μM) | M (moderate solubility if the threshold concentration is 31.3 μM to 250 μM)
5 | CCc1ccc(Nc2ccc(C(=O)c3c[nH]c4ncnc(NCCCOC)c34)c(F)n2)cn1 [Compound P-4098, [6-[(6-ethyl-3-pyridyl)amino]-2-fluoro-3-pyridyl]-[4-(3-methoxypropylamino)-7H-pyrrolo[2,3-d]pyrimidin-5-yl]methanone] | < 10 nM | H (high solubility if the threshold concentration is >250 μm) | L (low solubility if the threshold concentration is <31.3 μM) | M (moderate solubility if the threshold concentration is 31.3 μM to 250 μM) | M (moderate solubility if the threshold concentration is 31.3 μM to 250 μM)
6 | COc1ccc(Nc2ccc(C(=O)c3c[nH]c4ncnc(NCC5CC5)c34)c(F)n2)cn1 [Compound P-4067, [4-(cyclopropylmethylamino)-7H-pyrrolo[2,3-d]pyrimidin-5-yl]-[2-fluoro-6-[(6-methoxy-3-pyridyl)amino]-3-pyridyl]methanone] | < 10 nM | H (high solubility if the threshold concentration is >250 μm) | M (moderate solubility if the threshold concentration is 31.3 μM to 250 μM) | M (moderate solubility if the threshold concentration is 31.3 μM to 250 μM) | M (moderate solubility if the threshold concentration is 31.3 μM to 250 μM)
7 | CCc1ccc(Nc2ccc(C(=O)c3c[nH]c4ncnc(NCC(F)(F)F)c34)c(F)n2)cn1 [Compound P-4120, [6-[(6-ethyl-3-pyridyl)amino]-2-fluoro-3-pyridyl]-[4-(2,2,2-trifluoroethylamino)-7H-pyrrolo[2,3-d]pyrimidin-5-yl]methanone] | < 100 nM | L (low solubility if the threshold concentration is <31.3 μM) | M (moderate solubility if the threshold concentration is 31.3 μM to 250 μM) | M (moderate solubility if the threshold concentration is 31.3 μM to 250 μM) | M (moderate solubility if the threshold concentration is 31.3 μM to 250 μM)
8 | CCc1ccc(Nc2ccc(C(=O)c3c[nH]c4ncnc(NC5CC5)c34)c(F)n2)cn1 [Compound P-4125, [4-(cyclopropylamino)-7H-pyrrolo[2,3-d]pyrimidin-5-yl]-[6-[(6-ethyl-3-pyridyl)amino]-2-fluoro-3-pyridyl]methanone] | < 10 nM | H (high solubility if the threshold concentration is >250 μm) | L (low solubility if the threshold concentration is <31.3 μM) | L (low solubility if the threshold concentration is <31.3 μM) | L (low solubility if the threshold concentration is <31.3 μM)
9 | O=C(c1ccc(NC2CCC(F)(F)CC2)nc1)c1c[nH]c2ncnc(NCC(F)(F)F)c12 [Compound P-4087, [6-[(4,4-difluorocyclohexyl)amino]-3-pyridyl]-[4-(2,2,2-trifluoroethylamino)-7H-pyrrolo[2,3-d]pyrimidin-5-yl]methanone] | < 10 nM | H (high solubility if the threshold concentration is >250 μm) | M (moderate solubility if the threshold concentration is 31.3 μM to 250 μM) | M (moderate solubility if the threshold concentration is 31.3 μM to 250 μM) | M (moderate solubility if the threshold concentration is 31.3 μM to 250 μM)
10 | Cc1ccc(Nc2ccc(C(=O)c3c[nH]c4ncnc(NCC(F)(F)F)c34)c(F)n2)cn1 [Compound P-4112, [2-fluoro-6-[(6-methyl-3-pyridyl)amino]-3-pyridyl]-[4-(2,2,2-trifluoroethylamino)-7H-pyrrolo[2,3-d]pyrimidin-5-yl]methanone] | < 100 nM | M (moderate solubility if the threshold concentration is 31.3 μM to 250 μM) | M (moderate solubility if the threshold concentration is 31.3 μM to 250 μM) | M (moderate solubility if the threshold concentration is 31.3 μM to 250 μM) | H (high solubility if the threshold concentration is >250 μm)
11 | COc1ccc(Nc2ccc(C(=O)c3c[nH]c4ncnc(NCC5CCCO5)c34)c(F)n2)cn1 (centres unmarked) [Compound P-4073, [2-fluoro-6-[(6-methoxy-3-pyridyl)amino]-3-pyridyl]-[4-(tetrahydrofuran-2-ylmethylamino)-7H-pyrrolo[2,3-d]pyrimidin-5-yl]methanone] | < 10 nM | M (moderate solubility if the threshold concentration is 31.3 μM to 250 μM) | L (low solubility if the threshold concentration is <31.3 μM) | L (low solubility if the threshold concentration is <31.3 μM) | L (low solubility if the threshold concentration is <31.3 μM)
12 | COc1ccc(Nc2ccc(C(=O)c3c[nH]c4ncnc(N[C@@H](C)c5ccc(F)cc5)c34)c(F)n2)cn1 [Compound P-4072, [2-fluoro-6-[(6-methoxy-3-pyridyl)amino]-3-pyridyl]-[4-[[(1S)-1-(4-fluorophenyl)ethyl]amino]-7H-pyrrolo[2,3-d]pyrimidin-5-yl]methanone] | < 100 nM | M (moderate solubility if the threshold concentration is 31.3 μM to 250 μM) | L (low solubility if the threshold concentration is <31.3 μM) | L (low solubility if the threshold concentration is <31.3 μM) | L (low solubility if the threshold concentration is <31.3 μM)
13 | O=C(c1ccc(Nc2ccc(C3CC3)nc2)nc1F)c1c[nH]c2ncnc(NC3CC3)c12 [Compound P-4093, [4-(cyclopropylamino)-7H-pyrrolo[2,3-d]pyrimidin-5-yl]-[6-[(6-cyclopropyl-3-pyridyl)amino]-2-fluoro-3-pyridyl]methanone] | < 10 nM | H (high solubility if the threshold concentration is >250 μm) | L (low solubility if the threshold concentration is <31.3 μM) | L (low solubility if the threshold concentration is <31.3 μM) | L (low solubility if the threshold concentration is <31.3 μM)
